In patent US4598146A, “Compound, arugomycin” (Kirin Beer Kabushiki Kaisha, priority 1983, dated 1986):

System: mice
Conditions: mouse, in vivo, ip

COC(=O)C1c2cc3c(c(O)c2C(OC2CC(OC)C(OC4CC(O)C(OC5CC(OC)C(OC6CC(OC)C(OC(=O)C=CC(=O)O)C(C)O6)C(C)O5)C(C)O4)C(C)O2)CC1(C)O)C(=O)c1c(O)cc2c(c1C3=O)OC1OC2(C)C(OC2CC(O)C(OC3CC(C)([N+](=O)[O-])C(OC4CC(OC)C(O)C(C)O4)C(C)O3)C(C)O2)C(N(C)C)C1O (stereo not shown) [Arugomycin]
LD50: 1.75 mg/kg
